Measured values: ChEMBL document CHEMBL1139651, “Antiarrhythmic activity of 4,6-di(het)aryl-5-nitro-3,4-dihydropyrimidin-(1H)-2-ones and its effects on arterial pressure in rats” (2006)

System: Rattus norvegicus
Assay: Antiarrhythmic activity in iv dosed rat
Type: functional
Conditions: Heart; for minimal effective dose: read-out: MED

Structure (SMILES) | LD50 | minimal effective dose | ED50
O=C1NC(c2ccccc2)=C([N+](=O)[O-])C(c2cccc([N+](=O)[O-])c2)N1 (stereo not given) | > 1000 mg/kg | 0.045 µg/kg | 
COc1ccc(CCN(C)CCCC(C#N)(c2ccc(OC)c(OC)c2)C(C)C)cc1OC (stereo not given) |  |  | 1.1 mg/kg
O=C1NC(c2ccccc2)=C([N+](=O)[O-])C(c2cccs2)N1 (stereo not given) | > 1000 mg/kg | 3500 µg/kg | 
O=C1NC(c2ccccc2)=C([N+](=O)[O-])C(c2cccnc2)N1 (stereo not given) | > 1000 mg/kg | 35 µg/kg | 
O=C1NC(c2ccccc2)=C([N+](=O)[O-])C(c2ccccc2)N1 (stereo not given) | > 5000 mg/kg | 35 µg/kg | 
COC(=O)C1=C(C)NC(C)=C(C(=O)OC)C1c1ccccc1[N+](=O)[O-] [NIFEDIPINE] | 210 mg/kg | 3500 µg/kg | 
O=C1NC(c2ccccc2)=C([N+](=O)[O-])C(c2cccc(F)c2)N1 (stereo not given) | > 5000 mg/kg | 0.35 µg/kg | 
O=C1NC(c2ccccc2)=C([N+](=O)[O-])C(c2ccc(O)cc2)N1 (stereo not given) | > 5000 mg/kg | 35 µg/kg | 
